In brackets after ≈: the same amount, converted by molar mass. Entries after “also recorded” stand apart in the source; their conditions may differ.
Experiments:
[1] = Hygroscopicity by DVS (Dynamic Vapor Sorption); type: physicochemical
[2] = Physical stability and conversion of solid forms (polymorph screen)
[3] = Solubility of Form A in water; type: physicochemical
[4] = Solubility of Form A in organic solvents; type: physicochemical

O=C1Nc2ccccc2C(c2ccccc2)=N[C@@H]1Nc1nnc(-c2ncc(C(F)(F)F)cc2N2CCOCC2)o1 [Amorphous]
hygroscopicity [1]: Appeared non-hygroscopic | conversion to another solid form [2]: Crystallizes to A

O=C1Nc2ccccc2C(c2ccccc2)=N[C@@H]1Nc1nnc(-c2ncc(C(F)(F)F)cc2N2CCOCC2)o1 [Form A]
hygroscopicity [1]: not hygroscopic; also recorded: Anhydrous/unsolvated, non-hygroscopic | weight gain during adsorption ([1]; DVS, adsorption to 95% RH): 0.1 wt % | moisture loss on desorption ([1]; DVS, desorption to 5% RH): losing all of the gained moisture | solubility ([3]; aqueous buffer, from pH 4-8): ~2 µg/mL (≈ 3.64 µM) | solubility ([3]; simulated gastric fluid, at pH 1): 13.3 µg/mL (≈ 24.2 µM) | solubility in organic solvents ([4]; alcohols, ethyl acetate, acetonitrile): relatively poor solubility | solubility in organic solvents ([4]; dichloromethane, 1,4-dioxane, tetrahydrofuran, acetone): highly soluble

O=C1Nc2ccccc2C(c2ccccc2)=N[C@@H]1Nc1nnc(-c2ncc(C(F)(F)F)cc2N2CCOCC2)o1 [Form D]
conversion to another solid form [2]: converts to Form F upon air drying

O=C1Nc2ccccc2C(c2ccccc2)=N[C@@H]1Nc1nnc(-c2ncc(C(F)(F)F)cc2N2CCOCC2)o1 [Form F]
conversion to another solid form [2]: Converts to G in ethyl acetate

O=C1Nc2ccccc2C(c2ccccc2)=N[C@@H]1Nc1nnc(-c2ncc(C(F)(F)F)cc2N2CCOCC2)o1 [Form G]
physical stability of solid form [2]: physically stable at ambient temperature

O=C1Nc2ccccc2C(c2ccccc2)=N[C@@H]1Nc1nnc(-c2ncc(C(F)(F)F)cc2N2CCOCC2)o1 [Material C]
conversion to another solid form [2]: desolvate readily to Form A; also recorded: Likely converts to A on drying

Reference: US20250145603A1, “CRYSTAL FORMS OF AN ANTI-RSV AGENT” (Enanta Pharmaceuticals, Inc., priority 2023, published 2025)
